Assays:
Format in all cases: in vivo
[1] = test system: barnyardgrass (Echinochloa crus-galli); assay: Test G Pre-Emergence Protocol; conditions: Echinochloa crus-galli, pre-emergence, 312 h, evaluated after 13 days
How it was run: (§1)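 Under a 24/16° C day/night regime with 14 h light and 65% humidity, sown pots were sprayed after one day with compound (15.625, 62.5 or 250 g/ha; 50:50 acetone/water, 0.5% Tween 20). Damage was assessed visually 13 days later, 0 to 100.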

[2] = test system: ivy-leaved morning glory (Ipomoea hederacea); assay: Test G Pre-Emergence Protocol; conditions: Ipomoea, pre-emergence, 312 h, 62.5 g ai/ha, evaluated after 13 days, 100=total damage to plant, 0=no damage to plant, read-out: plant damage rating, Morningglory, Ivy-leaved
How it was run: as §1

[3] = test system: velvetleaf (Abutilon theophrasti); assay: Test G Pre-Emergence Protocol; conditions: Abutilon theophrasti, pre-emergence, 312 h, evaluated after 13 days
How it was run: as §1

[4] = test system: corn (Zea mays); assay: Test G Pre-Emergence Protocol; conditions: Zea mays, pre-emergence, 312 h, evaluated after 13 days
How it was run: as §1

[5] = test system: redroot pigweed (Amaranthus retroflexus); assay: Test G Pre-Emergence Protocol; conditions: Amaranthus retroflexus, pre-emergence, 312 h, evaluated after 13 days
How it was run: as §1

[6] = test system: giant foxtail (Setaria faberi); assay: Test G Pre-Emergence Protocol; conditions: Setaria faberi, pre-emergence, 312 h, evaluated after 13 days
How it was run: as §1

[7] = test system: barnyardgrass (Echinochloa crus-galli); assay: Test G Post-Emergence Protocol; conditions: Echinochloa crus-galli, post-emergence, 312 h
How it was run: (§2)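 Eight days post-sowing, plants received a spray of test compound (acetone/water 50:50, 0.5% Tween 20) at 15.625, 62.5 or 250 g/ha. Glasshouse regime thereafter: 24/16 °C, 14 h light, 65% humidity. Assessment after 13 days on a 0–100 damage scale.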

[8] = test system: ivy-leaved morning glory (Ipomoea hederacea); assay: Test G Post-Emergence Protocol; conditions: Ipomoea, post-emergence, 312 h
How it was run: as §2

[9] = test system: velvetleaf (Abutilon theophrasti); assay: Test G Post-Emergence Protocol; conditions: Abutilon theophrasti, post-emergence, 312 h
How it was run: as §2

[10] = test system: corn (Zea mays); assay: Test G Post-Emergence Protocol; conditions: Zea mays, post-emergence, 312 h
How it was run: as §2

[11] = test system: redroot pigweed (Amaranthus retroflexus); assay: Test G Post-Emergence Protocol; conditions: Amaranthus retroflexus, post-emergence, 312 h
How it was run: as §2

[12] = test system: giant foxtail (Setaria faberi); assay: Test G Post-Emergence Protocol; conditions: Setaria faberi, post-emergence, 312 h
How it was run: as §2

With `CN1C[C@H](c2ccc3ccccc3c2)[C@@H](C(=O)Nc2cccc(F)c2F)C1=O` (racemic) [Compound 1501] as the compound, how does the pest or weed control at 15.625 g/ha ([1]; 15.625 g ai/ha, read-out: Barnyard grass damage rating (100=total damage to plant; 0=no damage to plant)) read?
Its pest or weed control at 15.625 g/ha is 0%.

What about the pest or weed control at 62.5 g/ha ([1]; 62.5 g ai/ha, 100=total damage to plant, 0=no damage to plant, read-out: plant damage rating, Barnyardgrass) of the same compound?
Its pest or weed control at 62.5 g/ha is 50%.

And the pest or weed control at 250 g/ha ([1]; 250 g ai/ha, read-out: Barnyardgrass damage rating (100=total damage to plant; 0=no damage to plant))?
The pest or weed control at 250 g/ha was 60%.

And the pest or weed control at 62.5 g/ha [2]?
The pest or weed control at 62.5 g/ha was 0%.

What about the pest or weed control at 15.625 g/ha ([3]; 15.625 g ai/ha, read-out: Velvetleaf damage rating (100=total damage to plant; 0=no damage to plant)) of the same compound?
Its pest or weed control at 15.625 g/ha is 0%.

What about the pest or weed control at 62.5 g/ha ([3]; 62.5 g ai/ha, 100=total damage to plant, 0=no damage to plant, read-out: plant damage rating, Velvetleaf) of the same compound?
The pest or weed control at 62.5 g/ha was 0%.

And the pest or weed control at 250 g/ha ([3]; 250 g ai/ha, read-out: Velvetleaf damage rating (100=total damage to plant; 0=no damage to plant))?
Its pest or weed control at 250 g/ha is 0%.

What about the plant injury at 15.625 g/ha ([4]; 15.625 g ai/ha, read-out: Corn damage rating (100=total damage to plant; 0=no damage to plant)) of the same compound?
The plant injury at 15.625 g/ha was 0%.

What about the plant injury at 62.5 g/ha ([4]; 62.5 g ai/ha, 100=total damage to plant, 0=no damage to plant, read-out: plant damage rating, Corn) of the same compound?
The plant injury at 62.5 g/ha was 0%.

What about the plant injury at 250 g/ha ([4]; 250 g ai/ha, read-out: Corn damage rating (100=total damage to plant; 0=no damage to plant)) of the same compound?
The plant injury at 250 g/ha was 0%.

And the pest or weed control at 15.625 g/ha ([5]; 15.625 g ai/ha, read-out: Pigweed, Redroot damage rating (100=total damage to plant; 0=no damage to plant))?
Its pest or weed control at 15.625 g/ha is 0%.

And the pest or weed control at 62.5 g/ha ([5]; 62.5 g ai/ha, 100=total damage to plant, 0=no damage to plant, read-out: plant damage rating, Pigweed, Redroot)?
The pest or weed control at 62.5 g/ha was 0%.

What about the pest or weed control at 250 g/ha ([5]; 250 g ai/ha, read-out: Pigweed, Redroot damage rating (100=total damage to plant; 0=no damage to plant)) of the same compound?
Its pest or weed control at 250 g/ha is 0%.

And the pest or weed control at 15.625 g/ha ([6]; 15.625 g ai/ha, read-out: Foxtail, Giant damage rating (100=total damage to plant; 0=no damage to plant))?
Its pest or weed control at 15.625 g/ha is 0%.

And the pest or weed control at 62.5 g/ha ([6]; 62.5 g ai/ha, 100=total damage to plant, 0=no damage to plant, read-out: plant damage rating, Foxtail, Giant)?
The pest or weed control at 62.5 g/ha was 70%.

What about the pest or weed control at 250 g/ha ([6]; 250 g ai/ha, read-out: Foxtail, Giant damage rating (100=total damage to plant; 0=no damage to plant)) of the same compound?
The pest or weed control at 250 g/ha was 80%.

What about the pest or weed control at 15.625 g/ha ([7]; 15.625 g ai/ha, evaluated after 13 days (100=total damage to plant; 0=no damage to plant), read-out: Barnyardgrass damage rating) of the same compound?
The pest or weed control at 15.625 g/ha was 10%.

What about the pest or weed control at 62.5 g/ha ([7]; 62.5 g ai/ha, evaluated after 13 days, read-out: Barnyardgrass damage rating (100=total damage to plant; 0=no damage to plant)) of the same compound?
Its pest or weed control at 62.5 g/ha is 50%.

And the pest or weed control at 250 g/ha ([7]; 250 g ai/ha, evaluated after 13 days, read-out: damage to plant, Barnyardgrass (100=total damage to plant; 0=no damage to plant))?
Its pest or weed control at 250 g/ha is 60%.

And the pest or weed control at 15.625 g/ha ([8]; 15.625 g ai/ha, evaluated after 13 days (100=total damage to plant; 0=no damage to plant), read-out: Morningglory, Ivy-leaved damage rating)?
Its pest or weed control at 15.625 g/ha is 0%.

And the pest or weed control at 62.5 g/ha ([8]; 62.5 g ai/ha, evaluated after 13 days, read-out: Morningglory, Ivy-leaved damage rating (100=total damage to plant; 0=no damage to plant))?
The pest or weed control at 62.5 g/ha was 0%.

What about the pest or weed control at 250 g/ha ([8]; 250 g ai/ha, evaluated after 13 days, read-out: damage to plant, Morningglory, Ivy-leaved (100=total damage to plant; 0=no damage to plant)) of the same compound?
Its pest or weed control at 250 g/ha is 0%.

And the pest or weed control at 15.625 g/ha ([9]; 15.625 g ai/ha, evaluated after 13 days (100=total damage to plant; 0=no damage to plant), read-out: Velvetleaf damage rating)?
Its pest or weed control at 15.625 g/ha is 0%.

And the pest or weed control at 62.5 g/ha ([9]; 62.5 g ai/ha, evaluated after 13 days, read-out: Velvetleaf damage rating (100=total damage to plant; 0=no damage to plant))?
Its pest or weed control at 62.5 g/ha is 0%.

And the pest or weed control at 250 g/ha ([9]; 250 g ai/ha, evaluated after 13 days, read-out: damage to plant, Velvetleaf (100=total damage to plant; 0=no damage to plant))?
Its pest or weed control at 250 g/ha is 0%.

And the plant injury at 15.625 g/ha ([10]; 15.625 g ai/ha, evaluated after 13 days (100=total damage to plant; 0=no damage to plant), read-out: Corn damage rating)?
Its plant injury at 15.625 g/ha is 10%.

And the plant injury at 62.5 g/ha ([10]; 62.5 g ai/ha, evaluated after 13 days, read-out: Corn damage rating (100=total damage to plant; 0=no damage to plant))?
The plant injury at 62.5 g/ha was 20%.

What about the plant injury at 250 g/ha ([10]; 250 g ai/ha, evaluated after 13 days, read-out: damage to plant, Corn (100=total damage to plant; 0=no damage to plant)) of the same compound?
The plant injury at 250 g/ha was 30%.

What about the pest or weed control at 15.625 g/ha ([11]; 15.625 g ai/ha, evaluated after 13 days (100=total damage to plant; 0=no damage to plant), read-out: Pigweed, Redroot damage rating) of the same compound?
Its pest or weed control at 15.625 g/ha is 0%.

What about the pest or weed control at 62.5 g/ha ([11]; 62.5 g ai/ha, evaluated after 13 days, read-out: Pigweed, Redroot damage rating (100=total damage to plant; 0=no damage to plant)) of the same compound?
The pest or weed control at 62.5 g/ha was 0%.

And the pest or weed control at 250 g/ha ([11]; 250 g ai/ha, evaluated after 13 days, read-out: damage to plant, Pigweed, Redroot (100=total damage to plant; 0=no damage to plant))?
Its pest or weed control at 250 g/ha is 0%.

What about the pest or weed control at 15.625 g/ha ([12]; 15.625 g ai/ha, evaluated after 13 days (100=total damage to plant; 0=no damage to plant), read-out: Foxtail, Giant damage rating) of the same compound?
The pest or weed control at 15.625 g/ha was 40%.

And the pest or weed control at 62.5 g/ha ([12]; 62.5 g ai/ha, evaluated after 13 days, read-out: Foxtail, Giant damage rating (100=total damage to plant; 0=no damage to plant))?
The pest or weed control at 62.5 g/ha was 60%.

And the pest or weed control at 250 g/ha ([12]; 250 g ai/ha, evaluated after 13 days, read-out: damage to plant, Foxtail, Giant (100=total damage to plant; 0=no damage to plant))?
Its pest or weed control at 250 g/ha is 60%.
